Compound	melting point
OCc1cn(-c2ccc(N3CCOCC3)c(F)c2)nn1 [Example 2, [1-(3-Fluoro-4-morpholin-4-yl-phenyl)-1H-[1,2,3]triazol-4-yl]-methanol]	198 °C
CC(=O)NCc1cn(-c2cc(F)c(N3CC[S+]([O-])CC3)c(F)c2)nn1 [Example 44, N-{1-[3,5-Difluoro-4-(1-oxo-1lambda*4*-thiomorpholin-4-yl)-phenyl]-1H-triazol-4-ylmethyl}-acetamide]	203 °C
CC(=S)NCc1cn(-c2ccc(N3CC[S+]([O-])CC3)c(F)c2)nn1 [Example 53, N-{1-[3-Fluoro-4-(1-oxo-1lambda*4*-thiomorpholin-4-yl)-phenyl]-1H-[1,2,3]triazol-4-ylmethyl}-thioacetamide]	245 °C
COC(=O)NCc1cn(-c2ccc(N3CC[S+]([O-])CC3)c(F)c2)nn1 [Example 48, {1-[3-Fluoro-4-(1-oxo-1lambda*4*-thiomorpholin-4-yl)-phenyl]-1H-[1,2,3]triazol-4-ylmethyl}-carbamic acid methyl ester]	218 °C
CC(=O)NCc1cn(-c2ccc(N3CC[S+]([O-])CC3)c(F)c2)nn1 [Example 47, N-{1-[3-Fluoro-4-(1-oxo-1lambda*4*-thiomorpholin-4-yl)-phenyl]-H-[1,2,3]triazol-4-ylmethyl}-acetamide]	210 °C
CC(=O)NCc1cn(-c2ccc(N3CCS(=O)(=O)CC3)c(F)c2)nn1 [Example 49, N-{1-[4-(1,1-Dioxo-1lambda*6*-thiomorpholin-4-yl)-3-fluoro-phenyl]H-triazol-4-ylmethyl}-acetamide]	198 °C
[N-]=[N+]=NCc1cn(-c2ccc(N3CCOCC3)c(F)c2)nn1 [Example 12, 4-[4-(4-Azidomethyl-[1,2,3]triazol-1-yl)-2-fluorophenyl]-morpholine]	90 °C
O=CNCc1cn(-c2ccc(N3CC[S+]([O-])CC3)c(F)c2)nn1 [Example 50, N-{1-[3-Fluoro-4-(1-oxo-1lambda*4*-thiomorpholin-4-yl)-phenyl]-1H-[1,2,3]triazol-4-ylmethyl}-formamide]	182 to 184 °C
CC(=O)NCc1cn(-c2ccc(N3CCOCC3)c(F)c2)nn1 [Example 42, N-[1-(3-Fluoro-4-morpholin-4-yl-phenyl)-1H-[1,2,3]triazol-4-ylmethyl]-acetamide]	218 °C

More lines, now with the values ahead:

melting point	Compound
216 to 218 °C	O=C(NCc1cn(-c2ccc(N3CCSCC3)c(F)c2)nn1)c1cnccn1 [Example 72, N-{1-[3-fluoro-4-(4-thiomorpholinyl)phenyl]-1H-1,2,3-triazol-4-ylmethyl}-pyrazine-2-carboxamide]
138 °C	O=C(NC(=S)NCc1cn(-c2ccc(N3CCOCC3)c(F)c2)nn1)c1ccccc1 [Example 70, 1-Benzoyl-3-[1-(3-fluoro-4-morpholin-4-yl-phenyl)-1H-[1,2,3]triazol-4-ylmethyl]-thiourea]
184 °C	CSC(=S)NCc1cn(-c2ccc(N3CC[S+]([O-])CC3)c(F)c2)nn1 [Example 68, {1-[3-Fluoro-4-(1-oxo-1lambda*4*-thiomorpholin-4-yl)-phenyl]-1H-[1,2,3]triazol-4-ylmethyl}-dithiocarbamic acid methyl ester]
135 to 137 °C	COC(=S)NCc1cn(-c2ccc(N3CCC4(CC3)OCCO4)c(F)c2)nn1 [Example 62, {1-[4-(1,4-Dioxa-8-aza-spiro[4.5]dec-8-yl)-3-fluoro-phenyl]-1H-[1,2,3]triazol-4-ylmethyl}-thiocarbamic acid O-methyl ester]
228 to 230 °C	NC(=S)NCc1cn(-c2ccc(N3CC[S+]([O-])CC3)c(F)c2)nn1 [Example 77, {1-[3-Fluoro-4-(1-oxo-1lambda*4*-thiomorpholin-4-yl)-phenyl]-1H-[1,2,3]triazol-4-ylmethyl}-thiourea]
182 to 184 °C	CNC(=S)NCc1cn(-c2ccc(N3CC[S+]([O-])CC3)c(F)c2)nn1 [Example 78, 1-{1–[3-Fluoro-4-(1-oxo-1lambda*4*-thiomorpholin-4-yl)-phenyl]-1H-[1,2,3]triazol-4-ylmethyl}-3-methyl-thiourea]

Source: patent US7202254B2, “Antibacterial compounds: process for their preparation and pharmaceutical compositions containing them” (Dr. Reddy's Laboratories Limited, priority 2002, dated 2007)
